In US7713963B2, “Acylated indanyl amines and their use as pharmaceuticals” (sanofi-aventis Deutschland GmbH, priority 2001, dated 2010):
Read-outs that look alike come from different tables or passages of the source.

System: eNOS promoter
Test: Activation of eNOS transcription (eNOS promoter-luciferase reporter gene assay)
Type: cell-based, human
Conditions: Homo sapiens, 18 h; for maximal fold induction: read-out: TIR (max); for EC50: Endothelial cell
Protocol: Measurement of activation of eNOS transcription Activation of eNOS transcription was measured as described in detail in Li et al. “Activation of protein kinase C alpha and/or epsilon enhances transcription of the human endothelial nitric oxide synthase gene”, Mol. Pharmacol. 1998; 53: 630-637. Briefly, a 3.5 kB long fragment 5′ of the starting codon of the eNOS gene was cloned, sequenced and cloned in firefly luciferase expression plasmids to monitor activation of the eNOS promoter by reporter gene activity. A human endothelial cell line stable transfected and expressing this promoter-reporter construct was used for compound testing. Cells were incubated for 18 h with compounds. All compounds were dissolved in sterile DMSO. A final concentration of 0.5% DMSO in complete medium was allowed. Induction of reporter gene expression in these cells was measured using a standard luciferase assay system (Promega, Cat. No E150) according to the manufacturer's instructions. Luciferase induction in cells incubated with compounds were compared to those incubated with solvent alone. The ratio of both activities (transcription induction ratio, TIR) was plotted as a function of compound concentration. […] EC50 values of transcription induction ratios as a function of compound concentration were determined graphically.

[1] = maximum transcription induction ratio (luciferase with compound / solvent alone), 18 h incubation
[2] = EC50 of transcription induction ratio, determined graphically, human endothelial cell line, 18 h incubation, read-out: EC-50

EC50 [2] [µM] | Structure (SMILES) | maximal fold induction [1] | maximal fold induction | EC50 [µM]
22 | Cc1ccc(F)c(C(=O)NC2Cc3ccccc3C2)c1 [Compound 266, 2-FLUORO-N-INDAN-2-YL-5-METHYL-BENZAMIDE] | 2.5 |  | 
1.6 | O=C(NC1Cc2ccccc2C1)c1ccccc1Br [Compound 272, 2-BROMO-N-INDAN-2-YL-BENZAMIDE] | 2.9 |  | 
2.6 | O=C(NC1Cc2ccccc2C1)c1ccccc1F [Compound 273, 2-FLUORO-N-INDAN-2-YL-BENZAMIDE] | 2.8 |  | 
21 | O=C(NC1Cc2ccccc2C1)c1c(F)ccc(F)c1F [Compound 274, 2,3,6-TRIFLUORO-N-INDAN-2-YL-BENZAMIDE] |  |  | 
0.684 | Cc1ccccc1C(=O)NC1Cc2ccccc2C1 [Compound 281, N-INDAN-2-YL-2-METHYL-BENZAMIDE] | 3 |  | 
15 | O=C(NC1Cc2ccccc2C1)c1cccc(Cl)c1 [Compound 283, 3-CHLORO-N-INDAN-2-YL-BENZAMIDE] | 2.5 |  | 
26 | O=C(NC1Cc2ccccc2C1)c1cccc(Oc2ccccc2)c1 [Compound 286, N-INDAN-2-YL-3-PHENOXY-BENZAMIDE] | 2.6 |  | 
0.142 | O=C(NC1Cc2ccccc2C1)c1ccc(Br)cc1 [Compound 289, 4-BROMO-N-INDAN-2-YL-BENZAMIDE] | 2.6 |  | 
0.846 | O=C(NC1Cc2ccccc2C1)c1ccc2ccccc2c1 [Compound 295, NAPHTHALENE-2-CARBOXYLIC ACID INDAN-2-YLAMIDE] | 2.4 |  | 
16 | O=C(NC1Cc2ccccc2C1)c1cc2cc(Cl)ccc2[nH]1 [Compound 315, 5-CHLORO-1H-INDOLE-2-CARBOXYLIC ACID INDAN-2-YLAMIDE] | 2.2 |  | 
9.6 | CS(=O)(=O)c1csc(C(=O)NC2Cc3ccccc3C2)c1Cl [Compound 321, 3-CHLORO-4-METHANESULFONYL-THIOPHENE-2-CARBOXYLIC ACID INDAN-2-YLAMIDE] | 2.5 |  | 
24 | O=C(NC1Cc2ccccc2C1)c1ccc(-n2ccnc2)cc1 [Compound 328, 4-IMIDAZOL-1-YL-N-INDAN-2-YL-BENZAMIDE] | 2.4 |  | 

The next lines start with the compound.

Structure (SMILES) | EC50 [2] [µM] | maximal fold induction [1] | maximal fold induction | EC50 [µM]
Cc1cccc(C(=O)NC2Cc3ccccc3C2)c1Cl [Compound 264, 2-CHLORO-N-INDAN-2-YL-3-METHYL-BENZAMIDE] | 0.58 | 2.9 |  | 
CC(C)S(=O)(=O)c1csc(C(=O)NC2Cc3ccccc3C2)c1Cl [Compound 265, 3-CHLORO-4-(PROPANE-2-SULFONYL)-THIOPHENE-2-CARBOXYLIC ACID INDAN-2-YLAMIDE] | 0.183 | 2.7 |  | 
CC(=O)Nc1cccc(C(=O)NC2Cc3ccccc3C2)c1Cl [Compound 267, 3-ACETYLAMINO-2-CHLORO-N-INDAN-2-YL-BENZAMIDE] | 2.8 | 2.5 |  | 
CCNc1ccc(C(=O)NC2Cc3ccccc3C2)cc1 [Compound 268, 4-ETHYLAMINO-N-INDAN-2-YL-BENZAMIDE] | 0.485 | 3 |  | 
O=C(NC1Cc2ccccc2C1)c1ccccc1Cl [Compound 275, 2-CHLORO-N-INDAN-2-YL-BENZAMIDE] | 0.559 | 3 |  | 
O=C(NC1Cc2ccccc2C1)c1cccc(Cl)c1Cl [Compound 276, 2,3-DICHLORO-N-INDAN-2-YL-BENZAMIDE] | 0.157 | 3 |  | 
O=C(NC1Cc2ccccc2C1)c1ccc(Cl)cc1Cl [Compound 277, 2,4-DICHLORO-N-INDAN-2-YL-BENZAMIDE] | 4.1 | 3 |  | 
Cc1cc(C)c(C(=O)NC2Cc3ccccc3C2)c(C)c1 [Compound 282, N-INDAN-2-YL-2,4,6-TRIMETHYL-BENZAMIDE] | 16 | 2.3 |  | 
O=C(NC1Cc2ccccc2C1)c1cccc(C(=O)c2ccccc2)c1 [Compound 287, 3-BENZOYL-N-INDAN-2-YL-BENZAMIDE] | 13 | 2.9 |  | 
COc1ccc(C(=O)NC2Cc3ccccc3C2)cc1 [Compound 291, N-INDAN-2-YL-4-METHOXY-BENZAMIDE] | 0.238 | 2.8 |  | 
CSc1ccc(C(=O)NC2Cc3ccccc3C2)cc1 [Compound 292, N-INDAN-2-YL-4-METHYLSULFANYL-BENZAMIDE] |  |  | 2.9 | 0.039
CCCCCc1ccc(C(=O)NC2Cc3ccccc3C2)cc1 [Compound 293, N-INDAN-2-YL-4-PENTYL-BENZAMIDE] | 14 | 1.7 |  | 
O=C(NC1Cc2ccccc2C1)c1cccc2ccccc12 [Compound 294, NAPHTHALENE-1-CARBOXYLIC ACID INDAN-2-YLAMIDE] | 14 | 2.2 |  | 
O=C(NC1Cc2ccccc2C1)c1ccoc1 [Compound 296, FURAN-3-CARBOXYLIC ACID INDAN-2-YLAMIDE] | 13 | 2.5 |  | 
O=C(NC1Cc2ccccc2C1)c1cccc(F)c1F [Compound 302, 2,3-DIFLUORO-N-INDAN-2-YL-BENZAMIDE] | 27 | 2.8 |  | 
CCOc1cccc(C(=O)NC2Cc3ccccc3C2)c1 [Compound 306, 3-ETHOXY-N-INDAN-2-YL-BENZAMIDE] | 0.263 | 2.7 |  | 
CS(=O)(=O)c1ccc(C(=O)NC2Cc3ccccc3C2)c(Cl)c1 [Compound 312, 2-CHLORO-N-INDAN-2-YL-4-METHANESULFONYL-BENZAMIDE] | 16 | 2.2 |  | 
O=C(NC1Cc2ccccc2C1)c1ccc(Cl)c(Cl)c1 [Compound 314, 3,4-DICHLORO-N-INDAN-2-YL-BENZAMIDE] | 12 | 2.2 |  | 
O=C(NC1Cc2ccccc2C1)c1ccc(Br)cc1Cl [Compound 317, 4-BROMO-2-CHLORO-N-INDAN-2-YL-BENZAMIDE] | 0.197 | 2.9 |  | 
Cc1c(C(=O)NC2Cc3ccccc3C2)oc2ccccc12 [Compound 319, 3-METHYL-BENZOFURAN-2-CARBOXYLIC ACID INDAN-2-YLAMIDE] | 25 | 2.4 |  | 
O=C(NC1Cc2ccccc2C1)c1ccc(F)c(F)c1F [Compound 320, 2,3,4-TRIFLUORO-N-INDAN-2-YL-BENZAMIDE] | 12 | 3 |  | 
CCCc1c(C(=O)NC2Cc3ccccc3C2)cnn1-c1ccc(Cl)cc1 [Compound 322, 1-(4-CHLORO-PHENYL)-5-PROPYL-1H-PYRAZOLE-4-CARBOXYLIC ACID INDAN-2-YLAMIDE] | 23 | 2.3 |  | 
O=C(NC1Cc2ccccc2C1)c1sc2cc(F)ccc2c1Cl [Compound 324, 3-CHLORO-6-FLUORO-BENZO[B]THIOPHENE-2-CARBOXYLIC ACID INDAN-2-YLAMIDE] | 2.1 | 1.7 |  | 
Cc1ccc(C)n1-c1ccc(C(=O)NC2Cc3ccccc3C2)cc1 [Compound 327, 4-(2,5-DIMETHYL-PYRROL-1-YL)-N-INDAN-2-YL-BENZAMIDE] | 2.6 | 2.5 |  | 
O=C(NC1Cc2ccccc2C1)c1sc2cccc(Cl)c2c1Cl [Compound 329, 3,4-DICHLORO-BENZO[B]THIOPHENE-2-CARBOXYLIC ACID INDAN-2-YLAMIDE] | 2.2 | 1.5 |  | 
